Laboratory results taken from PubChem BioAssay (NCI).
“And” between values parts separate entries of the source, which are not always exact repeats. Equal values may be shown once.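 Cultured in 96-well plates, cells were exposed to test compound for 48 hours across five concentrations. Abbreviation: GI50, concentration required for 50% inhibition of growth. At the TGI there is no net growth.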

How the values were obtained:
Assay in all cases: growth of human tumour cells (NCI), 48 h
[1] = tested on: SNB-75 CNS
[2] = tested on: UACC-257 melanoma
[3] = tested on: OVCAR-3 ovarian
[4] = tested on: SN12C renal
[5] = tested on: SK-MEL-2 melanoma
[6] = tested on: SK-OV-3 ovarian
[7] = tested on: MCF7 breast
[8] = tested on: HS 578T breast
[9] = tested on: A498 renal
[10] = tested on: NCI-H23 lung
[11] = tested on: KM12 colon
[12] = tested on: SF-539 CNS
[13] = tested on: CAKI-1 renal
[14] = tested on: OVCAR-5 ovarian
[15] = tested on: OVCAR-8 ovarian
[16] = tested on: A549 NSCLC
[17] = tested on: BT-549 breast
[18] = tested on: K-562 leukemia
[19] = tested on: COLO 205 colon
[20] = tested on: SF-268 CNS
[21] = tested on: LOX IMVI melanoma
[22] = tested on: UO-31 renal
[23] = tested on: OVCAR-4 ovarian
[24] = tested on: U251 CNS
[25] = tested on: HCT-116 colon
[26] = tested on: HL-60(TB) leukemia
[27] = tested on: SR leukemia
[28] = tested on: T-47D breast
[29] = tested on: SF-295 CNS
[30] = tested on: SK-MEL-28 melanoma
[31] = tested on: MOLT-4 leukemia
[32] = tested on: PC-3 prostate
[33] = tested on: HCT-15 colon
[34] = tested on: SNB-19 CNS
[35] = tested on: MDA-MB-435
[36] = tested on: MDA-MB-231 breast
[37] = tested on: ACHN renal
[38] = tested on: MALME-3M melanoma
[39] = tested on: 786-0 renal
[40] = tested on: NCI-H226 lung
[41] = tested on: EKVX NSCLC
[42] = tested on: HCC-2998 colon
[43] = tested on: SK-MEL-5 melanoma
[44] = tested on: RPMI-8226 leukemia
[45] = tested on: HOP-92 NSCLC
[46] = tested on: SW-620 colon
[47] = tested on: HT29 colon
[48] = tested on: NCI-H522 lung
[49] = tested on: UACC-62 melanoma
[50] = tested on: M14 melanoma
[51] = tested on: NCI/ADR-RES ovarian
[52] = tested on: HOP-62 NSCLC
[53] = tested on: CCRF-CEM leukemia
[54] = tested on: NCI-H460 lung
[55] = tested on: IGROV1 ovarian
[56] = tested on: TK-10 renal
[57] = tested on: DU-145 prostate

CCC1=CC2CN(C1)Cc1c([nH]c3ccccc13)[C@@](C(=O)OC)(c1cc3c(cc1OC)N(C)[C@H]1[C@@](O)(C(=O)OC)[C@H](OC(C)=O)[C@]4(CC)C=CCN5CC[C@]31[C@@H]54)C2 (stereo partly specified)
TGI [1]: 17.9 µM | GI50 [2]: 7.54 µM | TGI [2]: 33.3 µM | GI50 [3]: < 0.005 µM | TGI [3]: 0.00611 µM and 0.0135 µM | GI50 [4]: 0.0118 µM and 0.0186 µM | TGI [4]: 50 µM and > 100 µM | TGI [5]: 14.9 µM and > 100 µM | TGI [6]: 11.8 µM | GI50 [7]: < 0.005 µM | TGI [7]: 50 µM and > 100 µM | GI50 [8]: 0.00827 µM and 0.0277 µM | TGI [8]: 19.8 µM and 45.7 µM | GI50 [9]: 0.014 µM and 0.0173 µM | TGI [9]: 0.326 µM and 0.151 µM | GI50 [10]: 0.0176 µM and 0.0134 µM | TGI [10]: 50 µM and > 100 µM | TGI [11]: 0.372 µM | GI50 [12]: 0.014 µM | TGI [12]: 8.44 µM | GI50 [13]: 7.86 µM and 6.85 µM | TGI [13]: 50 µM and > 100 µM | GI50 [14]: 0.0325 µM and 0.0785 µM | TGI [14]: 50 µM and > 100 µM | GI50 [15]: 0.0201 µM and 0.0306 µM | TGI [15]: 50 µM and > 100 µM | GI50 [16]: 0.0114 µM and 0.0208 µM | TGI [16]: 50 µM and > 100 µM | GI50 [17]: < 0.005 µM and 0.043 µM | GI50 [18]: < 0.005 µM | TGI [18]: 16.6 µM and 15.2 µM | GI50 [19]: 0.00763 µM | GI50 [20]: 0.122 µM and 0.145 µM | TGI [20]: 50 µM and 91 µM | GI50 [21]: < 0.005 µM | TGI [21]: 50 µM and > 100 µM | GI50 [22]: 5.45 µM and 1.06 µM | TGI [22]: 26.6 µM and 76.9 µM | GI50 [23]: 0.0341 µM | TGI [23]: 50 µM and > 100 µM | GI50 [24]: < 0.005 µM | TGI [24]: 6.71 µM and 21 µM | GI50 [25]: < 0.005 µM | TGI [25]: 50 µM and > 100 µM | GI50 [26]: < 0.005 µM | TGI [26]: 0.00984 µM and 0.0285 µM | GI50 [27]: < 0.005 µM | TGI [27]: 9.27 µM | GI50 [28]: 0.00507 µM | TGI [28]: 50 µM | GI50 [29]: 0.0151 µM and 0.0231 µM | TGI [29]: 50 µM and > 100 µM | GI50 [30]: 0.0221 µM | TGI [30]: > 100 µM | GI50 [31]: 0.0105 µM | TGI [31]: 11.1 µM and 13.9 µM | GI50 [32]: < 0.005 µM | TGI [32]: 32.6 µM and > 100 µM | GI50 [33]: 0.277 µM and 0.416 µM | TGI [33]: 50 µM and > 100 µM | GI50 [34]: 0.0238 µM | TGI [34]: > 100 µM | GI50 [35]: < 0.005 µM | GI50 [36]: 0.0182 µM and 0.0211 µM | TGI [36]: 5.74 µM and 0.873 µM | GI50 [37]: 0.407 µM and 1.27 µM | TGI [37]: 50 µM and > 100 µM | GI50 [38]: < 0.005 µM | TGI [38]: 8.68 µM | GI50 [39]: 0.0514 µM and 0.0773 µM | TGI [39]: 16.7 µM and > 100 µM | GI50 [40]: 19.8 µM | TGI [40]: 50 µM | GI50 [41]: 26.7 µM and 45.8 µM | TGI [41]: 50 µM and > 100 µM | GI50 [42]: 0.0108 µM and 0.0162 µM | GI50 [43]: 0.00873 µM | TGI [43]: 0.501 µM and 0.208 µM | GI50 [44]: 0.00931 µM and 0.0415 µM | GI50 [45]: 1.51 µM | TGI [45]: 97.1 µM | GI50 [46]: < 0.005 µM | TGI [46]: 50 µM and > 100 µM | GI50 [47]: < 0.005 µM | TGI [47]: 6 µM and 20.9 µM | GI50 [48]: < 0.005 µM | TGI [48]: 1.3 µM | GI50 [49]: 0.00589 µM | TGI [49]: 50 µM and > 100 µM | GI50 [50]: 0.00953 µM and 0.0245 µM | TGI [50]: 5.82 µM and 0.913 µM | GI50 [51]: 1.05 µM and 1.85 µM | GI50 [52]: 0.0135 µM | TGI [52]: 43.8 µM | GI50 [53]: 0.00879 µM | TGI [53]: 20.2 µM | GI50 [54]: 0.00735 µM

OCc1ccc2c(c1)CC1(Cc3ccc(/C=N/O)cc3C1)C2 (stereo unspecified)
TGI [1]: > 25.5 µM | TGI [2]: 18.7 µM | TGI [3]: 17.1 µM | TGI [4]: > 54.5 µM | TGI [5]: 42.3 µM | TGI [6]: > 100 µM | TGI [55]: > 100 µM | TGI [8]: > 26.4 µM | TGI [9]: 96.5 µM | TGI [10]: 56.3 µM | TGI [11]: 19.1 µM | TGI [56]: > 100 µM | TGI [12]: 11.3 µM | TGI [13]: > 89.7 µM | TGI [14]: > 87.7 µM | TGI [15]: 35.2 µM | TGI [16]: > 100 µM | TGI [17]: > 66.4 µM | TGI [19]: 13.9 µM | TGI [20]: > 100 µM | TGI [21]: > 100 µM | TGI [22]: 80.9 µM | TGI [23]: > 61.7 µM | TGI [57]: > 100 µM | TGI [24]: > 49.3 µM | TGI [25]: > 100 µM | TGI [27]: > 100 µM | TGI [28]: > 100 µM | TGI [29]: > 40.8 µM | TGI [30]: > 100 µM | TGI [31]: > 40.4 µM | TGI [32]: > 100 µM | TGI [33]: > 45.1 µM | TGI [34]: > 100 µM | TGI [35]: 1.51 µM | TGI [36]: > 100 µM | TGI [37]: > 80.6 µM | TGI [38]: > 78.8 µM | TGI [39]: > 100 µM | TGI [40]: 71 µM | TGI [41]: > 100 µM | TGI [42]: 11.5 µM | TGI [43]: 8.25 µM | TGI [44]: 28.6 µM | TGI [45]: 59.5 µM | TGI [46]: > 100 µM | TGI [47]: 11.4 µM | TGI [48]: 10.8 µM | TGI [49]: > 56.1 µM | TGI [50]: 21.6 µM | TGI [51]: 37 µM | TGI [52]: > 76.7 µM | TGI [53]: > 100 µM | TGI [54]: 18.9 µM
